Test results: patent publication US20260053834A1, “COVALENT MODIFIERS OF AKT1 AND USES THEREOF” (Terremoto Biosciences, Inc., priority 2023, published 2026)

How the values were obtained:
[1] = test system: LAPC4 prostate cancer cells, which express the AKT1 E17K allele; assay: Antiproliferative effects in LAPC4 cells (CellTiter Glo, 72 h); format: cell-based; settings: Homo sapiens, LAPC4, 72 h, read-out: LAPC4 proliferation IC50: GeoMean IC50
Method in brief: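 IC50 values come from Hill-equation fitting of luminescence (cellular ATP) after 72 h compound exposure. Treated wells held 1,000 cells each, with compound delivered as DMSO dilutions. Culture medium was IMDM plus 12% FBS.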

[2] = biological target: T1, AKT2 (Homo sapiens, UniProt P31751); assay: Live cell target engagement by NanoBRET competitive probe displacement, AKT2; format: binding; settings: transfected HEK293 cells, 2 h at 37° C., read-out: AKT2 IC50: GeoMean IC50
T1 construct: expressed in transfected cells; host or cells: HEK293

[3] = biological target: T2, AKT1 WT (Homo sapiens, UniProt P31749); assay: Live cell target engagement by NanoBRET competitive probe displacement, AKT1 WT; format: binding; settings: transfected HEK293 cells, 2 h at 37° C., read-out: AKT1 WT IC50: GeoMean IC50
T2 construct: expressed in transfected cells; host or cells: HEK293

[4] = biological target: T3, AKT1 E17K (Homo sapiens, UniProt P31749, E17K); assay: Live cell target engagement by NanoBRET competitive probe displacement, AKT1 E17K; format: binding; settings: transfected HEK293 cells, 2 h at 37° C., read-out: AKT1 E17K IC50: GeoMean IC50
T3 construct: expressed in transfected cells; host or cells: HEK293
T3 sequence (P31749 whole entry E17K): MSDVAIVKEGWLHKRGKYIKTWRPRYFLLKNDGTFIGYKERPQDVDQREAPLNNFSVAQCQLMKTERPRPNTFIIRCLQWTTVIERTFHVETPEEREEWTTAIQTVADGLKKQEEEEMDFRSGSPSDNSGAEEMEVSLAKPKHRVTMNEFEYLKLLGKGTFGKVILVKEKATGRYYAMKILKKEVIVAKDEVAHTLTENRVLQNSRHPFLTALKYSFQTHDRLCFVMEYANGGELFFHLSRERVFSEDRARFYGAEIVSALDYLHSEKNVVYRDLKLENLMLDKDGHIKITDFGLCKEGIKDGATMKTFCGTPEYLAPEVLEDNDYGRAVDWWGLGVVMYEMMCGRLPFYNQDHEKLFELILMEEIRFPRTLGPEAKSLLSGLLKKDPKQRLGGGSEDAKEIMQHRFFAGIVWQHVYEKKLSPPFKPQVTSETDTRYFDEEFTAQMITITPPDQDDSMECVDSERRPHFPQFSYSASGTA

T1 sequence (P31751 whole entry): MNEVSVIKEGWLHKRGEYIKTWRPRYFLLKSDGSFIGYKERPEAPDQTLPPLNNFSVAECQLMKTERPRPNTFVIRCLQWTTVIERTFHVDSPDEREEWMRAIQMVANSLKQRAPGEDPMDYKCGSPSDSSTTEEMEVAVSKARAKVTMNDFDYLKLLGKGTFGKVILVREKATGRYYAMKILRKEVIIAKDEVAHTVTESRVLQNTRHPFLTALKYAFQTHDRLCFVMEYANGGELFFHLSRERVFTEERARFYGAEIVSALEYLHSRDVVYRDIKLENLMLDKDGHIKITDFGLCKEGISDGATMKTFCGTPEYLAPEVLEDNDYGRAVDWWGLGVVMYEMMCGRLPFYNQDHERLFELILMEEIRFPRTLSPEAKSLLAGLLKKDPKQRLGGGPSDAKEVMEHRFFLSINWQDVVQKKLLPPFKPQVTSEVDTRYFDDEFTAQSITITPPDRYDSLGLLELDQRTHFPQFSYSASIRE
T2 sequence (P31749 whole entry): as the sequence (P31749 whole entry E17K) above, with K17E counted along it

Compound	IC50 [1] [µM]	IC50 [2] [µM]	IC50 [3] [µM]	IC50 [4] [µM]
Cc1cc(-n2ccc(F)n2)nc2c1nc(-c1cccnc1N)n2-c1ccc2c(c1)CC[C@@H]2NC(=O)c1cc(C=O)c(O)c(F)c1F [Example 199, N-[(1S)-5-[2-(2-aminopyridin-3-yl)-5-(3-fluoropyrazol-1-yl)-7-methylimidazo[4,5-b]pyridin-3-yl]-2,3-dihydro-1H-inden-1-yl]-2,3-difluoro-5-formyl-4-hydroxybenzamide]	0.1 to 2	0.1 to 2	< 0.01	< 0.01
COc1cc(-n2cccn2)nc2c1nc(-c1cccnc1N)n2-c1ccc2c(c1)CC[C@@H]2NC(=O)c1ccc(O)c(C=O)c1 [Example 200, N-[(1S)-5-[2-(2-aminopyridin-3-yl)-7-methoxy-5-(pyrazol-1-yl)imidazo[4,5-b]pyridin-3-yl]-2,3-dihydro-1H-inden-1-yl]-3-formyl-4-hydroxybenzamide]	0.1 to 2	0.1 to 2	0.01 to 0.1	0.01 to 0.1
Cc1nnc(-c2ccc3nc(-c4cccnc4N)n(-c4ccc5c(c4)CC[C@@H]5NC(=O)c4ccc(O)c(C=O)c4)c3n2)s1 [Example 203, N-[(1S)-5-[2-(2-aminopyridin-3-yl)-5-(5-methyl-1,3,4-thiadiazol-2-yl)imidazo[4,5-b]pyridin-3-yl]-2,3-dihydro-1H-inden-1-yl]-3-formyl-4-hydroxybenzamide]	0.1 to 2	0.1 to 2	0.01 to 0.1	0.01 to 0.1
[2H]C(=O)c1cc(C(=O)N[C@H]2CCc3cc(-n4c(-c5cccnc5N)nc5ccc(-n6cccn6)nc54)ccc32)c(F)c(F)c1O [Example 204, (S)—N-(5-(2-(2-aminopyridin-3-yl)-5-(1H-pyrazol-1-yl)-3H-imidazo[4,5-b]pyridin-3-yl)-2,3-dihydro-1H-inden-1-yl)-2,3-difluoro-5-(formyl-d)-4-hydroxybenzamide]	0.01 to 0.1	0.01 to 0.1	< 0.01	< 0.01
Nc1ncccc1-c1nc2ccc(-n3cccn3)nc2n1-c1ccc2c(c1)CC[C@@H]2NC(=O)c1cc(C=O)c(O)cc1-n1cccn1 [Example 205, N-[(1S)-5-[2-(2-aminopyridin-3-yl)-5-(pyrazol-1-yl)imidazo[4,5-b]pyridin-3-yl]-2,3-dihydro-1H-inden-1-yl]-5-formyl-4-hydroxy-2-(pyrazol-1-yl)benzamide]	0.1 to 2	0.1 to 2	0.01 to 0.1	0.01 to 0.1
Nc1ncccc1-c1nc2ccc(-n3ncc4c3COC4)nc2n1-c1ccc2c(c1)CC[C@@H]2NC(=O)c1ccc(O)c(C=O)c1 [Example 206, N-[(1S)-5-[2-(2-aminopyridin-3-yl)-5-{4H,6H-furo[3,4-c]pyrazol-1-yl}imidazo[4,5-b]pyridin-3-yl]-2,3-dihydro-1H-inden-1-yl]-3-formyl-4-hydroxybenzamide]	0.01 to 0.1	0.1 to 2	0.01 to 0.1	< 0.01
Nc1ncccc1-c1nc2ccc(-n3cccn3)nc2n1-c1ccc2c(c1)CC[C@@H]2N1Cc2cc(O)c(C=O)cc2C1=O [Example 208, (S)-2-(5-(2-(2-aminopyridin-3-yl)-5-(1H-pyrazol-1-yl)-3H-imidazo[4,5-b]pyridin-3-yl)-2,3-dihydro-1H-inden-1-yl)-6-hydroxy-3-oxoisoindoline-5-carbaldehyde]	≥ 2	≥ 2	≥ 2	≥ 2
COCc1cc(-n2cccn2)nc2c1nc(-c1cccnc1N)n2-c1ccc2c(c1)CC[C@@H]2NC(=O)c1ccc(O)c(C=O)c1 [Example 210, N-[(1S)-5-[2-(2-aminopyridin-3-yl)-7-(methoxymethyl)-5-(pyrazol-1-yl)imidazo[4,5-b]pyridin-3-yl]-2,3-dihydro-1H-inden-1-yl]-3-formyl-4-hydroxybenzamide]	0.1 to 2	0.1 to 2	0.01 to 0.1	0.01 to 0.1
Nc1ncccc1-c1nc2c(Cl)cc(-n3cccn3)nc2n1-c1ccc2c(c1)CC[C@@H]2NC(=O)c1cc(C=O)c(O)c(F)c1F [Example 212, N-[(1S)-5-[2-(2-aminopyridin-3-yl)-7-chloro-5-(pyrazol-1-yl)imidazo[4,5-b]pyridin-3-yl]-2,3-dihydro-1H-inden-1-yl]-2,3-difluoro-5-formyl-4-hydroxybenzamide]	0.01 to 0.1	0.01 to 0.1	< 0.01	< 0.01

Further lines, results first:

IC50 [1] [µM]	IC50 [2] [µM]	IC50 [3] [µM]	IC50 [4] [µM]	Compound
0.01 to 0.1	0.01 to 0.1	0.01 to 0.1	0.01 to 0.1	Nc1ncccc1-c1nc2ccc(-c3ncc(F)s3)nc2n1-c1ccc2c(c1)CC[C@@H]2NC(=O)c1cc(C=O)c(O)c(F)c1F [Example 193, N-[(1S)-5-[2-(2-aminopyridin-3-yl)-5-(5-fluoro-1,3-thiazol-2-yl)imidazo[4,5-b]pyridin-3-yl]-2,3-dihydro-1H-inden-1-yl]-2,3-difluoro-5-formyl-4-hydroxybenzamide]
0.1 to 2	0.1 to 2	0.1 to 2	0.01 to 0.1	Nc1ncccc1-c1nc2ccc(-c3ncc[nH]3)nc2n1-c1ccc2c(c1)CC[C@@H]2NC(=O)c1ccc(O)c(C=O)c1 [Example 194, N-[(1S)-5-[2-(2-aminopyridin-3-yl)-5-(1H-imidazol-2-yl)imidazo[4,5-b]pyridin-3-yl]-2,3-dihydro-1H-inden-1-yl]-3-formyl-4-hydroxybenzamide]
0.01 to 0.1	0.1 to 2	0.1 to 2	0.01 to 0.1	Nc1ncccc1-c1nc2ccc(-n3cccn3)nc2n1-c1ccc2c(c1)CC(F)(F)[C@@H]2NC(=O)c1ccc(O)c(C=O)c1 [Example 195, (R)—N-(5-(2-(2-aminopyridin-3-yl)-5-(1H-pyrazol-1-yl)-3H-imidazo[4,5-b]pyridin-3-yl)-2,2-difluoro-2,3-dihydro-1H-inden-1-yl)-3-formyl-4-hydroxybenzamide]
0.1 to 2	0.1 to 2	0.01 to 0.1	0.01 to 0.1	Nc1ncccc1-c1nc2c(Cl)cc(-n3cccn3)nc2n1-c1ccc2c(c1)CC[C@@H]2NC(=O)c1ccc(O)c(C=O)c1 [Example 196, (S)—N-(5-(2-(2-aminopyridin-3-yl)-7-chloro-5-(1H-pyrazol-1-yl)-3H-imidazo[4,5-b]pyridin-3-yl)-2,3-dihydro-1H-inden-1-yl)-3-formyl-4-hydroxybenzamide]
0.1 to 2	0.01 to 0.1	0.01 to 0.1	0.01 to 0.1	CCc1cc(-n2cccn2)nc2c1nc(-c1cccnc1N)n2-c1ccc2c(c1)CC[C@@H]2NC(=O)c1ccc(O)c(C=O)c1 [Example 197, N-[(1S)-5-[2-(2-aminopyridin-3-yl)-7-ethyl-5-(pyrazol-1-yl)imidazo[4,5-b]pyridin-3-yl]-2,3-dihydro-1H-inden-1-yl]-3-formyl-4-hydroxybenzamide]
0.1 to 2	0.1 to 2	0.01 to 0.1	0.01 to 0.1	Nc1ncccc1-c1nc2c(-n3cccn3)cc(-n3cccn3)nc2n1-c1ccc2c(c1)CC[C@@H]2NC(=O)c1ccc(O)c(C=O)c1 [Example 198, N-[(1S)-5-[2-(2-aminopyridin-3-yl)-5,7-bis(pyrazol-1-yl)imidazo[4,5-b]pyridin-3-yl]-2,3-dihydro-1H-inden-1-yl]-3-formyl-4-hydroxybenzamide]
0.1 to 2	0.1 to 2	0.1 to 2	0.01 to 0.1	C#Cc1cc(-n2cccn2)nc2c1nc(-c1cccnc1N)n2-c1ccc2c(c1)CC[C@@H]2NC(=O)c1ccc(O)c(C=O)c1 [Example 201, N-[(1S)-5-[2-(2-aminopyridin-3-yl)-7-ethynyl-5-(pyrazol-1-yl)imidazo[4,5-b]pyridin-3-yl]-2,3-dihydro-1H-inden-1-yl]-3-formyl-4-hydroxybenzamide]
0.01 to 0.1	0.01 to 0.1	0.01 to 0.1	0.01 to 0.1	Cc1cc(-n2cccn2)nc2c1nc(-c1cccnc1N)n2-c1ccc2c(c1)CC[C@@H]2NC(=O)c1cc(C=O)c(O)cc1F [Example 202, (S)—N-(5-(2-(2-aminopyridin-3-yl)-7-methyl-5-(1H-pyrazol-1-yl)-3H-imidazo[4,5-b]pyridin-3-yl)-2,3-dihydro-1H-inden-1-yl)-2-fluoro-5-formyl-4-hydroxybenzamide]
0.1 to 2	0.1 to 2	0.01 to 0.1	0.01 to 0.1	Nc1ncccc1-c1nc2ccc(-n3cc4c(n3)COC4)nc2n1-c1ccc2c(c1)CC[C@@H]2NC(=O)c1ccc(O)c(C=O)c1 [Example 207, N-[(1S)-5-[2-(2-aminopyridin-3-yl)-5-{4H,6H-furo[3,4-c]pyrazol-2-yl}imidazo[4,5-b]pyridin-3-yl]-2,3-dihydro-1H-inden-1-yl]-3-formyl-4-hydroxybenzamide]
0.01 to 0.1	0.1 to 2	0.01 to 0.1	0.01 to 0.1	N#Cc1cc(-n2cccn2)nc2c1nc(-c1cccnc1N)n2-c1ccc2c(c1)CC[C@@H]2NC(=O)c1ccc(O)c(C=O)c1 [Example 209, N-[(1S)-5-[2-(2-aminopyridin-3-yl)-7-cyano-5-(pyrazol-1-yl)imidazo[4,5-b]pyridin-3-yl]-2,3-dihydro-1H-inden-1-yl]-3-formyl-4-hydroxybenzamide]
0.01 to 0.1	0.1 to 2	0.01 to 0.1	< 0.01	Cc1cc(-c2ncco2)nc2c1nc(-c1cccnc1N)n2-c1ccc2c(c1)CC[C@@H]2NC(=O)c1ccc(O)c(C=O)c1 [Example 211, N-[(1S)-5-[2-(2-aminopyridin-3-yl)-7-methyl-5-(1,3-oxazol-2-yl)imidazo[4,5-b]pyridin-3-yl]-2,3-dihydro-1H-inden-1-yl]-3-formyl-4-hydroxybenzamide]
